System: metalloprotease 9 (MMP-9)
Test: Basal synthesis/release of MMP-9 by normal human epidermal keratinocytes (ELISA of culture supernatants)
Format: cell-based
Conditions: NHEK; for % of basal synthesis/release of MMP-9 by keratinocytes: 24 hours incubation; for effect on the basal level of synthesis and/or release of MMP-9 (in words): doses of Table I
Protocol: This test was performed on cells cultured at 37° C., 5% CO2. The culture medium is Keratinocyte-SFM supplemented with epidermal growth factor (EGF) at 0.25 ng/ml, pituitary extract (PE) at 25 μg/ml and gentamicin at 25 μg/ml. […] At the end of this incubation, the culture supernatants were collected and stored so as to assay the amounts of MMP-9 secreted using the ELISA R&D Systems assay kit of reference DY911. The inter-group comparisons were performed using the unpaired bilateral Student's t-test.

SMILES | % of basal synthesis/release of MMP-9 by keratinocytes (petroselinic acid 0.1 μM) [%] | effect on the basal level of synthesis and/or release of MMP-9 (in words) | % of basal synthesis/release of MMP-9 by keratinocytes (taurine 1.2 μg/ml) | % of basal synthesis/release of MMP-9 by keratinocytes (cysteine 1.2 μg/ml) [%]
CCCCCCCCCCC/C=C\CCCCC(=O)O [Petroselinic acid, C18 delta-6-cis-octadecenoic acid] | −12 | no inhibitory activity |  | 
NCCS(=O)(=O)O [Taurine] |  | reverse and moderate tendency | +11% | 
N[C@@H](CS)C(=O)O [Cysteine] |  |  |  | −12
